# In patent publication EP4273147A1, “SUBSTITUTED SPIROLACTAMS, SALTS THEREOF AND THEIR USE AS HERBICIDALLY ACTIVE SUBSTANCES” (Bayer Aktiengesellschaft, priority 2022, dated 2023):
# Legend:
# ABUTH [1] = assay: Herbicidal pre-emergence action (Table A1); type: in vivo, Abutilon theophrasti; settings: application rate 320 g/ha; visual grading after ca. 3 weeks vs untreated controls (100% = plants have died off, 0% = as control plants)
# Outline: (§1)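 Seeds of monocot and dicot weeds were sown in pots of sandy loam and covered with soil. Each pot held a double sowing: one monocotyledonous plus one dicotyledonous species.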
# ECHCG [2] = assay: Herbicidal pre-emergence action (Table A2); type: in vivo, Echinochloa crus-galli; settings: application rate 320 g/ha; visual grading after ca. 3 weeks
# Outline: as §1
# LOLRI [3] = assay: Herbicidal pre-emergence action (Table A3); type: in vivo, Lolium rigidum; settings: application rate 320 g/ha; visual grading after ca. 3 weeks
# Outline: as §1
# MATIN [4] = assay: Herbicidal pre-emergence action (Table A4); type: in vivo, Matricaria inodora; settings: application rate 320 g/ha; visual grading after ca. 3 weeks
# Outline: as §1
# SETVI [5] = assay: Herbicidal pre-emergence action (Table A5); type: in vivo, Setaria viridis; settings: application rate 320 g/ha; visual grading after ca. 3 weeks
# Outline: as §1
# STEME = assay: Herbicidal pre-emergence action (Table A6); type: in vivo, Stellaria media; settings: application rate 320 g/ha; visual grading after ca. 3 weeks
# Outline: as §1
# POAAN [6] = assay: Herbicidal pre-emergence action (Table A7); type: in vivo, Poa annua; settings: application rate 320 g/ha; visual grading after ca. 3 weeks
# Outline: as §1
# AMARE [7] = assay: Herbicidal pre-emergence action (Table A8); type: in vivo, Amaranthus retroflexus; settings: application rate 1280 g/ha; visual grading after ca. 3 weeks vs untreated controls (100% = plants have died off, 0% = as control plants)
# Outline: as §1
# ALOMY [8] = assay: Herbicidal pre-emergence action (Table A9); type: in vivo, Alopecurus myosuroides; settings: application rate 320 g/ha; visual grading after ca. 3 weeks
# Outline: as §1
# KCHSC = assay: Herbicidal pre-emergence action (Table A10); type: in vivo, Kochia scoparia; settings: application rate 1280 g/ha; visual grading after ca. 3 weeks
# Outline: as §1
# VERPE [9] = assay: Herbicidal pre-emergence action (Table A11); type: in vivo, Veronica persica; settings: application rate 320 g/ha; visual grading after ca. 3 weeks
# Outline: as §1
# DIGSA [10] = assay: Herbicidal pre-emergence action (Table A12); type: in vivo, Digitaria sanguinalis; settings: application rate 320 g/ha; visual grading after ca. 3 weeks
# Outline: as §1
# ABUTH [11] = assay: Herbicidal post-emergence action (Table B1); type: in vivo, Abutilon theophrasti; settings: application rate 320 g/ha; treated at one-leaf stage; rated visually after about 3 weeks vs untreated controls (100% = plants have died, 0% = like control plants)
# Outline: (§2)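 Percent herbicidal activity scored visually versus untreated controls, with 100% meaning dead plants. Scoring took place ~3 weeks after post-emergence treatment of one-leaf-stage weeds grown in sandy loam pots in a greenhouse.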
# ALOMY [12] = assay: Herbicidal post-emergence action (Table B2); type: in vivo, Alopecurus myosuroides; settings: application rate 320 g/ha; rated visually after about 3 weeks
# Outline: as §2
# ECHCG [13] = assay: Herbicidal post-emergence action (Table B3); type: in vivo, Echinochloa crus-galli; settings: application rate 320 g/ha; rated visually after about 3 weeks
# Outline: as §2
# LOLRI [14] = assay: Herbicidal post-emergence action (Table B5); type: in vivo, Lolium rigidum; settings: application rate 320 g/ha; rated visually after about 3 weeks
# Outline: as §2
# MATIN [15] = assay: Herbicidal post-emergence action (Table B6); type: in vivo, Matricaria inodora; settings: application rate 320 g/ha; rated visually after about 3 weeks
# Outline: as §2
# POAAN [16] = assay: Herbicidal post-emergence action (Table B7); type: in vivo, Poa annua; settings: application rate 320 g/ha
# Outline: as §2
# SETVI [17] = assay: Herbicidal post-emergence action (Table B8); type: in vivo, Setaria viridis; settings: application rate 320 g/ha
# Outline: as §2
# VERPE [18] = assay: Herbicidal post-emergence action (Table B10); type: in vivo, Veronica persica; settings: application rate 320 g/ha
# Outline: as §2
# DIGSA [19] = assay: Herbicidal post-emergence action (Table B12); type: in vivo, Digitaria sanguinalis; settings: application rate 320 g/ha
# Outline: as §2
# ABUTH [20] = assay: Herbicidal pre-emergence action, section C (Table C1); type: in vivo, Abutilon theophrasti; settings: application rate 80 g/ha; visual grading after ca. 3 weeks
# ALOMY [21] = assay: Herbicidal pre-emergence action, section C (Table C2); type: in vivo, Alopecurus myosuroides; settings: application rate 80 g/ha; visual grading after ca. 3 weeks
# DIGSA [22] = assay: Herbicidal pre-emergence action, section C (Table C5); type: in vivo, Digitaria sanguinalis; settings: application rate 80 g/ha; visual grading after ca. 3 weeks
# ECHCG [23] = assay: Herbicidal pre-emergence action, section C (Table C6); type: in vivo, Echinochloa crus-galli; settings: application rate 80 g/ha; visual grading after ca. 3 weeks
# LOLRI [24] = assay: Herbicidal pre-emergence action, section C (Table C7); type: in vivo, Lolium rigidum; settings: application rate 320 g/ha; visual grading after ca. 3 weeks
# MATIN [25] = assay: Herbicidal pre-emergence action, section C (Table C8); type: in vivo, Matricaria inodora; settings: application rate 320 g/ha; visual grading after ca. 3 weeks
# POLCO = assay: Herbicidal pre-emergence action, section C (Table C9); type: in vivo, Polygonum convolvulus; settings: visual grading after ca. 3 weeks
# Source text: (§4) Seeds of mono- and dicotyledonous weed plants and crop plants were sown, in plastic or organic planting pots, in sandy loam and covered with soil. The compounds according to the invention, formulated in the form of wettable powders (WP) or as emulsifiable concentrates (EC), were applied to the surface of the covering soil as aqueous suspension or emulsion, with the addition of 0.5% of an additive, at an application rate of 600 1 of water/ha (converted). Following treatment, the pots were placed in a greenhouse and kept under optimum growth conditions for the test plants.
# SETVI [26] = assay: Herbicidal pre-emergence action, section C (Table C10); type: in vivo, Setaria viridis; settings: application rate 80 g/ha; visual grading after ca. 3 weeks
# Source text: as §4
# VERPE [27] = assay: Herbicidal pre-emergence action, section C (Table C11); type: in vivo, Veronica persica; settings: application rate 320 g/ha; visual grading after ca. 3 weeks
# VIOTR [28] = assay: Herbicidal pre-emergence action, section C (Table C12); type: in vivo, Viola tricolor; settings: application rate 80 g/ha; visual grading after ca. 3 weeks
# GLXMA [29] = assay: Pre-emergence effects on crop plants (Table D4); type: in vivo, Glycine max; settings: crop plant; application rate 80 g/ha; visual grading after ca. 3 weeks
# ABUTH [30] = assay: Herbicidal post-emergence action, section E (Table E1); type: in vivo, Abutilon theophrasti; settings: application rate 320 g/ha; assessed visually after ca. 3 weeks
# Source text: (§3) 2 to 3 weeks after sowing, the test plants were sprayed in the single-leaf stage.
# ALOMY [31] = assay: Herbicidal post-emergence action, section E (Table E2); type: in vivo, Alopecurus myosuroides; settings: assessed visually after ca. 3 weeks
# Source text: as §3
# DIGSA [32] = assay: Herbicidal post-emergence action, section E (Table E4); type: in vivo, Digitaria sanguinalis; settings: application rate 320 g/ha; assessed visually after ca. 3 weeks
# Source text: as §3
# ECHCG [33] = assay: Herbicidal post-emergence action, section E (Table E5); type: in vivo, Echinochloa crus-galli; settings: assessed visually after ca. 3 weeks
# Source text: as §3
# LOLRI [34] = assay: Herbicidal post-emergence action, section E (Table E6); type: in vivo, Lolium rigidum; settings: application rate 320 g/ha; assessed visually after ca. 3 weeks
# Source text: as §3
# SETVI [35] = assay: Herbicidal post-emergence action, section E (Table E8); type: in vivo, Setaria viridis; settings: application rate 320 g/ha; assessed visually after ca. 3 weeks
# Source text: as §3
# VERPE [36] = assay: Herbicidal post-emergence action, section E (Table E9); type: in vivo, Veronica persica; settings: application rate 320 g/ha; assessed visually after ca. 3 weeks
# Source text: as §3
# VIOTR [37] = assay: Herbicidal post-emergence action, section E (Table E10); type: in vivo, Viola tricolor; settings: application rate 320 g/ha; assessed visually after ca. 3 weeks
# Source text: as §3
# ZEAMX = assay: Post-emergence effects on crop plants (Table F1); type: in vivo, Zea mays; settings: crop plant ZEAMX
# Source text: as §3
# TRZAS = assay: Post-emergence effects on crop plants (Table F2); type: in vivo, Triticum aestivum; settings: application rate 80 g/ha, crop plant TRZAS
# Source text: as §3
# ORYZA = assay: Post-emergence effects on crop plants (Table F3); type: in vivo, Oryza sativa; settings: application rate 80 g/ha, crop plant ORYZA
# Source text: as §3
# AMARE [38] = assay: Herbicidal pre-emergence action, section C (Table C3); type: in vivo, Amaranthus retroflexus; settings: application rate 320 g/ha; visual grading after ca. 3 weeks
# AVEFA = assay: Herbicidal pre-emergence action, section C (Table C4); type: in vivo, Avena fatua; settings: application rate 320 g/ha; visual grading after ca. 3 weeks
# Source text: as §4
# GLXMA [39] = assay: Post-emergence effects on crop plants (Table F4); type: in vivo, Glycine max; settings: application rate 80 g/ha, crop plant GLXMA
# Source text: as §3
# BRSNW = assay: Post-emergence effects on crop plants (Table F5); type: in vivo, Brassica napus; settings: application rate 320 g/ha, crop plant BRSNW
# Source text: as §3
smiles,measurement,setting,value
"O=C1N(Cc2ccccc2F)CCCC12CCCN(Cc1ccccc1F)C2=O (single isomer, unassigned) [I-001]",pre-emergence activity against ABUTH,ABUTH [1],90%
same,pre-emergence activity against ECHCG,ECHCG [2],100%
same,pre-emergence activity against LOLRI,LOLRI [3],100%
same,pre-emergence activity against MATIN,MATIN [4],90%
same,pre-emergence activity against SETVI,SETVI [5],100%
same,pre-emergence activity against STEME,STEME,90%
same,pre-emergence activity against POAAN,POAAN [6],100%
same,pre-emergence activity against AMARE,AMARE [7],90%
same,pre-emergence activity against ALOMY,ALOMY [8],90%
same,pre-emergence activity against KCHSC,KCHSC,90%
same,pre-emergence activity against VERPE,VERPE [9],90%
same,pre-emergence activity against DIGSA,DIGSA [10],100%
same,post-emergence activity against ABUTH,ABUTH [11],90%
same,post-emergence activity against ALOMY,ALOMY [12],90%
same,post-emergence activity against ECHCG,ECHCG [13],100%
same,post-emergence activity against LOLRI,LOLRI [14],90%
same,post-emergence activity against MATIN,MATIN [15],90%
same,post-emergence activity against POAAN,POAAN [16],90%
same,post-emergence activity against SETVI,SETVI [17],90%
same,post-emergence activity against VERPE,VERPE [18],90%
same,post-emergence activity against DIGSA,DIGSA [19],90%
same,pre-emergence activity against ABUTH,ABUTH [20],80%
same,pre-emergence activity against ALOMY,ALOMY [21],100%
same,pre-emergence activity against DIGSA,DIGSA [22],100%
same,pre-emergence activity against ECHCG,ECHCG [23],100%
same,pre-emergence activity against LOLRI,LOLRI [24],100%
same,pre-emergence activity against MATIN,MATIN [25],100%
same,pre-emergence activity against POLCO,POLCO; application rate 320 g/ha,80%
same,pre-emergence activity against SETVI,SETVI [26],100%
same,pre-emergence activity against VERPE,VERPE [27],90%
same,pre-emergence activity against VIOTR,VIOTR [28],90%
same,pre-emergence activity against GLXMA,GLXMA [29],0%
same,post-emergence activity against ABUTH,ABUTH [30],80%
same,post-emergence activity against ALOMY,ALOMY [31]; application rate 320 g/ha,90%
same,post-emergence activity against DIGSA,DIGSA [32],80%
same,post-emergence activity against ECHCG,ECHCG [33]; application rate 80 g/ha,90%
same,post-emergence activity against LOLRI,LOLRI [34],90%
same,post-emergence activity against SETVI,SETVI [35],100%
same,post-emergence activity against VERPE,VERPE [36],90%
same,post-emergence activity against VIOTR,VIOTR [37],80%
same,post-emergence activity against ZEAMX,ZEAMX; application rate 80 g/ha,0%
same,post-emergence activity against TRZAS,TRZAS,0%
same,post-emergence activity against ORYZA,ORYZA,0%
"O=C1N(Cc2c(F)cccc2F)CCCC12CCCN(Cc1c(F)cccc1F)C2=O (single isomer, unassigned; (-)) [I-009, (-)-2,8-bis[(2,6-difluorophenyl)methyl]-2,8-diazaspiro[5.5]undecane-1,7-dione]",pre-emergence activity against ALOMY,ALOMY [21],100%
same,pre-emergence activity against AMARE,AMARE [38],90%
same,pre-emergence activity against AVEFA,AVEFA,90%
same,pre-emergence activity against DIGSA,DIGSA [22],100%
same,pre-emergence activity against ECHCG,ECHCG [23],100%
same,pre-emergence activity against LOLRI,LOLRI [24],100%
same,pre-emergence activity against MATIN,MATIN [25],90%
same,pre-emergence activity against POLCO,POLCO; application rate 80 g/ha,80%
same,pre-emergence activity against SETVI,SETVI [26],100%
same,pre-emergence activity against VERPE,VERPE [27],90%
same,pre-emergence activity against VIOTR,VIOTR [28],80%
same,post-emergence activity against ALOMY,ALOMY [31]; application rate 80 g/ha,80%
same,post-emergence activity against DIGSA,DIGSA [32],90%
same,post-emergence activity against ECHCG,ECHCG [33]; application rate 320 g/ha,90%
same,post-emergence activity against VERPE,VERPE [36],80%
same,post-emergence activity against ZEAMX,ZEAMX; application rate 320 g/ha,20%
same,post-emergence activity against TRZAS,TRZAS,10%
same,post-emergence activity against ORYZA,ORYZA,10%
same,post-emergence activity against GLXMA,GLXMA [39],20%
same,post-emergence activity against BRSNW,BRSNW,20%
